The values below come from ChEMBL document CHEMBL1201862, “PubChem BioAssay data set” (2004).

Activity calls are given as the source filed them. Bounds are passed on as bounds.

For experiment [1], the target named is DNA damage-inducible transcript 3 protein (Mus musculus, UniProt P35639). The format is functional, Cricetulus griseus.
In experiment [2] the test system is HEK293. In words: cells. Type of experiment: functional, cell-based. The settings on record: Homo sapiens.
Experiment [3] deals with HEK293. Briefly: NOD2 signaling inhibitors in MDP-stimulated cells, cell-based, uHTS, luminescence (AID 2001). The settings on record: Homo sapiens. The format is functional.
The test system of experiment [4] is HEK293. In words: NOD1 signaling inhibitors, primary screen, cell-based, luminescence, uHTS (AID 1578). Type of experiment: functional. The settings on record: Homo sapiens.
For experiment [5], the target named is T1, Nucleotide-binding oligomerization domain-containing protein 2 (Homo sapiens, UniProt Q9HC29). In words: PubChem AID 2334. Type of experiment: functional.
A further experiment addresses Tumor necrosis factor (Homo sapiens, UniProt P01375). In words: TNFa-triggered NF-kB activation inhibitors, SAR follow-up, cell-based, revised (AID 2337). The format is functional.
For experiment [6], the system named is HEK293. Briefly: cells. To be noted: Homo sapiens.
The subject of experiment [7] is HEK293. Briefly: cells. To be noted: Homo sapiens. Type of experiment: functional, cell-based. The source holds these as a separate data set.
The target of experiment [8] is T1, Nucleotide-binding oligomerization domain-containing protein 2. Briefly: NOD2 signaling inhibitors, cell-based, luminescence, uHTS, HEK293 (AID 1566). Type of experiment: functional.
The target in experiment [9] is T2, Nucleotide-binding oligomerization domain-containing protein 1 (Homo sapiens, UniProt Q9Y239).
T2 sequence (Q9Y239 whole entry): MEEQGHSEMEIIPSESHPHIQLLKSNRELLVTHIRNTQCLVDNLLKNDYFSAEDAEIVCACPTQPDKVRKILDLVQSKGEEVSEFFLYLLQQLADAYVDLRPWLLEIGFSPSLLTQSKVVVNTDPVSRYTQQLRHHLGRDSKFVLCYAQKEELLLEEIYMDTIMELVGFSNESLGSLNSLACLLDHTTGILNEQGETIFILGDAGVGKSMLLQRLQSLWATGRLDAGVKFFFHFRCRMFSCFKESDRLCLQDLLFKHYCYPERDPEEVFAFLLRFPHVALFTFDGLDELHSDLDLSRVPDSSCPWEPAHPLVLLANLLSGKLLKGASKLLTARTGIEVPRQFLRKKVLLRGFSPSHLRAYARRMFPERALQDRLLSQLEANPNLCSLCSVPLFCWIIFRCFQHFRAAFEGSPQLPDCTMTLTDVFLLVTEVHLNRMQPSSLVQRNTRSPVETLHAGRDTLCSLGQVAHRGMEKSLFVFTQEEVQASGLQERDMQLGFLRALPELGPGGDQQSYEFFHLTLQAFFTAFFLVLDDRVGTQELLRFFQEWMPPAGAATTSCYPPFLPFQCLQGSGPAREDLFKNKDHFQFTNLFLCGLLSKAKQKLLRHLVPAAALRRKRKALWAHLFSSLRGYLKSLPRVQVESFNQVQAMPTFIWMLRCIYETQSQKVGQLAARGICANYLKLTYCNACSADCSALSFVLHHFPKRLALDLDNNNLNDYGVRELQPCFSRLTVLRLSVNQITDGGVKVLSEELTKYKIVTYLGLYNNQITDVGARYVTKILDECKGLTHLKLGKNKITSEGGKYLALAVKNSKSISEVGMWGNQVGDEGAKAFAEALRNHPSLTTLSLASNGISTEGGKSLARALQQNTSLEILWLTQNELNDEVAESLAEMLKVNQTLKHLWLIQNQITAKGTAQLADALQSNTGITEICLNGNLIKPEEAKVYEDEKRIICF
In words: NOD1 signaling inhibitors, SAR follow-up, revised (AID 2333). The format is functional.

In experiment [10] the test system is HEK293. Briefly: cells. Type of experiment: functional, cell-based. To be noted: Homo sapiens. This is another data set of the same source.
The target of experiment [11] is G-protein coupled receptor 55 (Homo sapiens, UniProt Q9Y2T6). In words: GPR55 antagonists blocking LPI-driven arrestin recruitment, primary screen, imaging, U2OS, beta-arrestin-GFP, LPI agonist (AID 2013).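 Further: antagonist potency measured as reduced agonist-driven arrestin aggregation.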 The format is functional. For orientation: Activated receptors often draw arrestin, which recruitment assays turn into a signal.
Experiment [12] deals with T3, High affinity choline transporter 1 (Homo sapiens, UniProt Q9GZV3).
T3 sequence (Q9GZV3 whole entry): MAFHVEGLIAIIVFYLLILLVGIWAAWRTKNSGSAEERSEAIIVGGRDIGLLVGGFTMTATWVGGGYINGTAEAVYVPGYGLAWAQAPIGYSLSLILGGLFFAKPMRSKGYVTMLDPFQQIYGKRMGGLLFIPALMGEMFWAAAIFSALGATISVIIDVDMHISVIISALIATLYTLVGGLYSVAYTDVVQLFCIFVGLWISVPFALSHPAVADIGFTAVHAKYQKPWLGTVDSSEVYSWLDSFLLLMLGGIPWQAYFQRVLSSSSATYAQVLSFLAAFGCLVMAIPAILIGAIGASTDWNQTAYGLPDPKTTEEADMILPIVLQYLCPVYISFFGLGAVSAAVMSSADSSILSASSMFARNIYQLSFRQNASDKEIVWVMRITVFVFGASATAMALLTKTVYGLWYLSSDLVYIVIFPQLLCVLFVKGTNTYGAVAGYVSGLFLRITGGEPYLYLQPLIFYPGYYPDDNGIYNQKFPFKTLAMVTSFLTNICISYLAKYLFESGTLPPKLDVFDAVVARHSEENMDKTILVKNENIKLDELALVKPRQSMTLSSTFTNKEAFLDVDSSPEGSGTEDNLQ
Briefly: CHT inhibitors, dose response, cell-based, 5-point CRC, membrane potential dye (AID 504840). The format is functional.

A further experiment deals with A-375. Briefly: A375 melanoma cell viability reduction, dose response, counter-screen for MITF modulator project, cherry-pick samples, set 2 (AID 540335). The format is functional, cell-based. To be noted: Homo sapiens.
A further experiment concerns the target Paired box protein Pax-8 (Homo sapiens, UniProt Q06710). Briefly: inhibitors of PAX8-driven TPO luciferase reporter, dose response, RMG-I cells, cherry-pick (AID 687027).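 Further: luciferase reporter driven by Pax8 target thyroperoxidase promoter measured by SteadyGlo luminescence.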 Type of experiment: functional, cell-based. For orientation: Reporter assays use an easily measured gene product as a stand-in for the process of interest.
In the next experiment the target is Galanin receptor type 3 (Homo sapiens, UniProt O60755). Briefly: Fluorescence-based cell-based primary high throughput dose response assay to identify antagonists of the Galanin Receptor 3 (GalR3). Type of experiment: functional.
Experiment [13] is described as follows: Fluorescence-based cell-based high throughput dose response assay for inhibitors of the interaction of nucleotide-binding oligomerization domain containing 2 (NOD2) and the receptor-interacting serine-threonine kinase 2 (RIPK2). The format is functional. The settings on record: Homo sapiens.
For another experiment, the system named is H4. In words: Luminescence Cell-Based Dose Response HTS to Identify Activators of 5'UTR Stem-Loop Driven Prion Protein mRNA Translation in H4 Neuroglioblastoma Cells. [Related pubchem assays: 1829 (Project Summary), 1814 (Primary HTS)]. The settings on record: Homo sapiens. Type of experiment: functional.
Another experiment can be described thus: cells. Type of experiment: functional, cell-based. To be noted: HEK-CNG.
Experiment [14] is described as follows: Luminescence Cell-Based Dose Response HTS to Identify Activators of Luciferase Translation or Activity in H4 […] Cells. [Related pubchem assays: 1829 (Project Summary), 1814 (Primary HTS)]. Type of experiment: functional.
Experiment [15] addresses T4, Microphthalmia-associated transcription factor (Homo sapiens, UniProt O75030).
T4 sequence (O75030 whole entry): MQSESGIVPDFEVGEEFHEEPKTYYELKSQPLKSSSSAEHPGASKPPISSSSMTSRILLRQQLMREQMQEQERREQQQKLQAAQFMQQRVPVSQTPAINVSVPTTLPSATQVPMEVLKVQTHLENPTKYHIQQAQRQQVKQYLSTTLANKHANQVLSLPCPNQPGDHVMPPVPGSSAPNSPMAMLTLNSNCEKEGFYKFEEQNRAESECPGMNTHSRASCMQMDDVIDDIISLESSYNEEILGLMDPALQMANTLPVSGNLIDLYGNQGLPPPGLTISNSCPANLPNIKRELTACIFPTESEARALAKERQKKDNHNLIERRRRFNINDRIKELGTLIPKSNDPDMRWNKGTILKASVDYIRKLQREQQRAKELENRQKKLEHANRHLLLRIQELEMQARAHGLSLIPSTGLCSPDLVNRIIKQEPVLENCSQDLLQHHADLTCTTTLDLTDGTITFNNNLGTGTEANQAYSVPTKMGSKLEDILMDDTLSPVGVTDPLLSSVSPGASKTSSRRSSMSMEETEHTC
In words: TRPM1 promoter luciferase signal decrease, dose response, MITF inhibitor project, cell-based, SK-MEL-5, cherry-picked, set 3 (AID 493073).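 Further: SK-MEL-5 melanoma cells with luciferase driven by the MITF target TRPM1 promoter.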 Type of experiment: functional.

Experiment [16] concerns the target T5, Heat shock factor protein 1 (Mus musculus, UniProt P38532).
T5 sequence (P38532 whole entry): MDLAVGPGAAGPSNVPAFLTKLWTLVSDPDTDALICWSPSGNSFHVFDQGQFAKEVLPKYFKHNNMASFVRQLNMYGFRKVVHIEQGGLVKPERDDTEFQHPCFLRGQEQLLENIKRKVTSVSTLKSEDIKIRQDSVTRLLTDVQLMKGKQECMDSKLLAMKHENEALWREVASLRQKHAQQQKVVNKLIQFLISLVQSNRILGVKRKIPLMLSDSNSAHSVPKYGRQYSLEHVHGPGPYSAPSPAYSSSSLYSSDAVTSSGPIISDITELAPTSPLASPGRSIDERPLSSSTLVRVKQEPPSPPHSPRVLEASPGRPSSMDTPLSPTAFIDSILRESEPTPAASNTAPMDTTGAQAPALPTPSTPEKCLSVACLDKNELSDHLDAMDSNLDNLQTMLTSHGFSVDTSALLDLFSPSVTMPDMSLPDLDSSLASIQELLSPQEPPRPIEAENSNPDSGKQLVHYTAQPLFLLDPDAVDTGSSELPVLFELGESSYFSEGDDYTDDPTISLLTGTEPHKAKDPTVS
In words: inhibition of MG132-induced HSE-luciferase signal, confirmation, cell-based, NIH3T3, luminescence, dose retest (AID 2382).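 Further: NIH3T3 fibroblasts with HSF1-driven luciferase reporter stressed by proteasome inhibitor MG132; luminescence from HSF1-driven luciferase expression after 8 hours of MG132 stress.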 Type of experiment: functional.

Experiment [17] in a line: Luminescence Cell-Based Dose Confirmation HTS to Identify Activators of 5'UTR Stem-Loop Driven Alpha-Synuclein mRNA Translation in H4 Neuroglioblastoma Cells. [Related pubchem assays: 1829 (Project Summary), 1814 (Primary HTS)]. The format is functional.
A further experiment concerns the target Troponin, cardiac muscle (Homo sapiens, UniProt P19429+P45379+P63316). In words: Fluorescence-based biochemical high throughput dose response assay for activators of the calcium sensitivity of cardiac Regulated Thin Filaments (RTF). [Related pubchem assays (depositor defined):AID493008, AID493018, AID504382, AID504383]. The format is protein-complex assay.

The next experiment deals with T6, Coagulation factor XII (Homo sapiens, UniProt P00748).
T6 sequence (P00748 whole entry): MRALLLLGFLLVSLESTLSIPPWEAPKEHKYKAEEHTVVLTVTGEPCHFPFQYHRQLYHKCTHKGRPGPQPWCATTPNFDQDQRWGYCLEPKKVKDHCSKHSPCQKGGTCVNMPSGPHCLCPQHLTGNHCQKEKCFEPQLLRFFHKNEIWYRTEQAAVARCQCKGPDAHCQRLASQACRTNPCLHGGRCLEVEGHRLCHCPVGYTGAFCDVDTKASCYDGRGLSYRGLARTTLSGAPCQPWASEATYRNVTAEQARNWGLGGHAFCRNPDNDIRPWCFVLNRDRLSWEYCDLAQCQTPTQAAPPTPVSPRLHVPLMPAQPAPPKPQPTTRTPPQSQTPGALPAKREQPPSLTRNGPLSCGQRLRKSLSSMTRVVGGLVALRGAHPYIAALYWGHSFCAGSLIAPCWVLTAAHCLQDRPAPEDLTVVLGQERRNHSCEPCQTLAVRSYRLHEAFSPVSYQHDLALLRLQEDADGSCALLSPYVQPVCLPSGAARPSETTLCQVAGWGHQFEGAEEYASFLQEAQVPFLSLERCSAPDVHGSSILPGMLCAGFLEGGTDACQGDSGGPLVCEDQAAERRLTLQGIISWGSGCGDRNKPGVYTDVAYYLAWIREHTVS
Type of experiment: functional.

With `CCOc1ccc2nc(NC(=O)CSc3nc4c(c(=O)n(C)c(=O)n4C)n3C(C)C)sc2c1`, the “Absolute IC50 (CHOP)” value in experiment [1] worked out at 10 µM.
As usually defined, the IC50 is the midpoint of a concentration-inhibition curve. As a reminder, the EC50 is the concentration needed to bring the measured effect to its halfway point. As for `Cc1c(C(=O)OCC(=O)c2c(N)n(CC(C)C)c(=O)n(C)c2=O)oc2ccccc12`, the IC50 in the experiment on HEK293 [2] is > 20 µM (inactive); with HEK293 [3], 19 µM (inactive); in [5] it was 14.9 µM (active); at Tumor necrosis factor, > 20 µM (inactive); in the experiment with HEK293 [6], > 20 µM (inactive); in the experiment with HEK293 [7], > 20 µM (inactive). The IC50 in [9] is 17.4 µM (active); in the experiment with HEK293 [10], > 20 µM (inactive). Further, the EC50 in the experiment on HEK293 [4] is 15.7 µM (active); in experiment [8], > 20 µM (inactive).
In general, AC50 refers to the concentration at which the activity in the assay is half-maximal. `CCCCn1c(=O)[nH]c(=O)c2c1nc(Cn1ncc(Cl)c(Cl)c1=O)n2CCC`: the IC50 in experiment [11] is 6.1 µM (active); in experiment [12], 12.6 µM (active); on Galanin receptor type 3, > 3.32 µM (active); in experiment [13], 2.15 µM (active). Moreover, the results for the AC50 (in the experiment on A-375; at Paired box protein Pax-8; in [15]) were 28.9 µM (active), 6.68 µM (active) and 8.12 µM (active), respectively. Also, the EC50 in the experiment on H4 was > 120 µM (not active); in “cells”, > 29.9 µM (inactive); in [14], > 120 µM (not active); in experiment [16], 2.89 µM (active); in experiment [17], > 120 µM (not active).
Turning to `COCCn1c(=O)c2ccccc2c2ccccc2c1=O`, at Troponin, cardiac muscle, the EC50 is > 71.5 µM (inactive).
For `CC(C)Oc1ccc(CNC(=S)N/N=C/c2ccc([N+](=O)[O-])cc2)cc1`, the IC50 on Coagulation factor XII was > 50 µM (inactive). For the same compound, the EC50 in experiment [16] is > 195 µM (not active). In addition, the “Absolute IC50 (CHOP)” value in experiment [1] worked out at 10 µM.
